Reference: patent US4550186A, “Binuclear copper (II) carboxylates formed from amine-carboxyboranes” (Duke University, priority 1983, dated 1985)

What was measured:
Fatty Acid Synthetase [1] = biological target: T1, Fatty Acid Synthetase (Mus musculus, UniProt P19096); assay: In vivo liver enzyme study: fatty acid synthetase; settings: CF1 liver after 16 days i.p.
T1 construct: 10% homogenates of CF1 male mouse liver; from tissue; host or cells: CF1 male mouse liver, 10% homogenate
Description: (§1) In vitro enzymatic studies were determined using 10% homogenates of CF1 male mouse liver with 50-200 μM of test drugs. In vivo enzymatic studies were determined using 10% homogenates of liver from CF1 male mice obtained after administering the agents for 16 days at a dose ranging from 2.5-20 mg/kg/day intraperitoneally. The liver homogenates for both in vitro and in vivo studies were prepared in 0.25M sucrose and 0.001M (ethylenedinitrilo)tetraacetic acid. Acetyl coenzyme A synthetase and adenosine triphosphate dependent citrate lyase activities were determined spectrophotometrically at 540 nm as the hydroxylamate of acetyl coenzyme A formed after 30 min at 37° C. Mitochondrial citrate exchange was determined by the procedure of Robinson et al [Eur. J. Biochem., 216, 63 (1970)] using ^14 C-sodium bicarbonate (41 mCi/mmol) incorporated into mitochondrial ^14 C-citrate after isolating rat mitochondria (9000 g×10 min) from the homogenates. The exchanges of the ^14 C-citrate were determined after incubating the mitochondrial fraction which was loaded with labeled citrate and test drugs for 10 min. Then the radioactivity was measured in the mitochondrial and supernantant fractions in scintillation fluid and expressed as a percentage. Cholesterol side chain oxidation was determined by the method of Kritchevsky and Tepper [Artherosclerosis, 18, 93 (1973)] using (26-^14 C) cholesterol (50 mCi/mmol) and mitochondria isolated from rat liver homogenates. […] Fatty acid synthetase activity was determined by the method of Brady et al [J. Biol. Chem., 235, 3093 (1960)] using [2-^14 C] malonyl-coenzyme A (37.5 mCi/mmol) which was incorporated into newly synthesized fatty acids that were extracted with ether and counted. Acyl transferase activity was determined with glycerol-3phosphate [L-2-^3 H(N)] […] HCl and counted. Phosphatidate phosphohydrolase activity was measured as the inorganic phosphate released after 30 min from phosphatidic acid by the method of Mavis et al [J. Lipid Res., 19, 467 (1978)]. […]

thymidylate synthetase = thymidylate synthetase (Mus musculus, UniProt P07607); assay: In vitro thymidylate synthetase activity; assay type: biochemical; settings: 0.25 to 1.0 mM
Sequence of thymidylate synthetase (P07607 whole entry): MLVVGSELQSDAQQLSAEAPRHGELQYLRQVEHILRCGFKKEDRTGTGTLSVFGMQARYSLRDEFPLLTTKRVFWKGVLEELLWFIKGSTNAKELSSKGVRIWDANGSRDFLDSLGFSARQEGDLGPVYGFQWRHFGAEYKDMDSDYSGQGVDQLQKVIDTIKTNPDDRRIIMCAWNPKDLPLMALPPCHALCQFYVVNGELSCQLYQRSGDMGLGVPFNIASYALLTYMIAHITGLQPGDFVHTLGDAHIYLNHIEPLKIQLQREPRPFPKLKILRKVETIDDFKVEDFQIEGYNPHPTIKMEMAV
Description: CF1 male mice (~30 g) were implanted with 2×10^6 Ehrlich ascites tumor cells, intraperitoneally on Day 0. Compound I was suspended by homogenation in 0.05% polysorbate.80-water and administered intraperitoneally at 10 and 20 mg/kg for 9 days to determine its effectiveness for inhibition of tumor growth. Mice were sacrificed on Day 10, and the ascites fluid was collected from the peritoneal cavity. The volume and ascrit (packed cell volume) were determined for each animal and the percent inhibition of tumor growth was calculated. For the metabolic studies, mice were treated on Days 8 and 9 with 10 mg/kg of Compound I, intraperitoneally. […]
Carbamyl phosphate synthetase activity was determined using the reaction medium of Kalman et al [Am. […] Citrulline formed from ornithine was measured at 490 nm by the method of Archibald [J. Biol. Chem., 156, 121 (1944)]. […] The ^14 CO2 generated in 15 min was trapped in 1M KOH and counted. Thymidylate synthetase activity was determined using a post-mitochondrial supernatant (9000 g×10 min) and 5 μCi of 5-^3 H-deoxyuridine monophosphate (14 Ci/mmol) according to the method of Kampf et al [ J. Med. Chem., 19, 903 (1976)]. ^14 C-Formate incorporation into purines was determined by the method of Spassova et al [Biochem. Pharmacol., 25, 923 (1976)] using 0.5 μCi of ^14 C-formic acid (52.0 mCi/mmol). […] The Rf value for xanthine monophosphate was scraped and counted. […]

Fatty Acid Synthetase [2] = biological target: T1, Fatty Acid Synthetase; assay: In vitro liver enzyme study: fatty acid synthetase; assay type: biochemical; settings: in vitro CF1 liver
Description: as §1

T1 sequence (P19096 whole entry): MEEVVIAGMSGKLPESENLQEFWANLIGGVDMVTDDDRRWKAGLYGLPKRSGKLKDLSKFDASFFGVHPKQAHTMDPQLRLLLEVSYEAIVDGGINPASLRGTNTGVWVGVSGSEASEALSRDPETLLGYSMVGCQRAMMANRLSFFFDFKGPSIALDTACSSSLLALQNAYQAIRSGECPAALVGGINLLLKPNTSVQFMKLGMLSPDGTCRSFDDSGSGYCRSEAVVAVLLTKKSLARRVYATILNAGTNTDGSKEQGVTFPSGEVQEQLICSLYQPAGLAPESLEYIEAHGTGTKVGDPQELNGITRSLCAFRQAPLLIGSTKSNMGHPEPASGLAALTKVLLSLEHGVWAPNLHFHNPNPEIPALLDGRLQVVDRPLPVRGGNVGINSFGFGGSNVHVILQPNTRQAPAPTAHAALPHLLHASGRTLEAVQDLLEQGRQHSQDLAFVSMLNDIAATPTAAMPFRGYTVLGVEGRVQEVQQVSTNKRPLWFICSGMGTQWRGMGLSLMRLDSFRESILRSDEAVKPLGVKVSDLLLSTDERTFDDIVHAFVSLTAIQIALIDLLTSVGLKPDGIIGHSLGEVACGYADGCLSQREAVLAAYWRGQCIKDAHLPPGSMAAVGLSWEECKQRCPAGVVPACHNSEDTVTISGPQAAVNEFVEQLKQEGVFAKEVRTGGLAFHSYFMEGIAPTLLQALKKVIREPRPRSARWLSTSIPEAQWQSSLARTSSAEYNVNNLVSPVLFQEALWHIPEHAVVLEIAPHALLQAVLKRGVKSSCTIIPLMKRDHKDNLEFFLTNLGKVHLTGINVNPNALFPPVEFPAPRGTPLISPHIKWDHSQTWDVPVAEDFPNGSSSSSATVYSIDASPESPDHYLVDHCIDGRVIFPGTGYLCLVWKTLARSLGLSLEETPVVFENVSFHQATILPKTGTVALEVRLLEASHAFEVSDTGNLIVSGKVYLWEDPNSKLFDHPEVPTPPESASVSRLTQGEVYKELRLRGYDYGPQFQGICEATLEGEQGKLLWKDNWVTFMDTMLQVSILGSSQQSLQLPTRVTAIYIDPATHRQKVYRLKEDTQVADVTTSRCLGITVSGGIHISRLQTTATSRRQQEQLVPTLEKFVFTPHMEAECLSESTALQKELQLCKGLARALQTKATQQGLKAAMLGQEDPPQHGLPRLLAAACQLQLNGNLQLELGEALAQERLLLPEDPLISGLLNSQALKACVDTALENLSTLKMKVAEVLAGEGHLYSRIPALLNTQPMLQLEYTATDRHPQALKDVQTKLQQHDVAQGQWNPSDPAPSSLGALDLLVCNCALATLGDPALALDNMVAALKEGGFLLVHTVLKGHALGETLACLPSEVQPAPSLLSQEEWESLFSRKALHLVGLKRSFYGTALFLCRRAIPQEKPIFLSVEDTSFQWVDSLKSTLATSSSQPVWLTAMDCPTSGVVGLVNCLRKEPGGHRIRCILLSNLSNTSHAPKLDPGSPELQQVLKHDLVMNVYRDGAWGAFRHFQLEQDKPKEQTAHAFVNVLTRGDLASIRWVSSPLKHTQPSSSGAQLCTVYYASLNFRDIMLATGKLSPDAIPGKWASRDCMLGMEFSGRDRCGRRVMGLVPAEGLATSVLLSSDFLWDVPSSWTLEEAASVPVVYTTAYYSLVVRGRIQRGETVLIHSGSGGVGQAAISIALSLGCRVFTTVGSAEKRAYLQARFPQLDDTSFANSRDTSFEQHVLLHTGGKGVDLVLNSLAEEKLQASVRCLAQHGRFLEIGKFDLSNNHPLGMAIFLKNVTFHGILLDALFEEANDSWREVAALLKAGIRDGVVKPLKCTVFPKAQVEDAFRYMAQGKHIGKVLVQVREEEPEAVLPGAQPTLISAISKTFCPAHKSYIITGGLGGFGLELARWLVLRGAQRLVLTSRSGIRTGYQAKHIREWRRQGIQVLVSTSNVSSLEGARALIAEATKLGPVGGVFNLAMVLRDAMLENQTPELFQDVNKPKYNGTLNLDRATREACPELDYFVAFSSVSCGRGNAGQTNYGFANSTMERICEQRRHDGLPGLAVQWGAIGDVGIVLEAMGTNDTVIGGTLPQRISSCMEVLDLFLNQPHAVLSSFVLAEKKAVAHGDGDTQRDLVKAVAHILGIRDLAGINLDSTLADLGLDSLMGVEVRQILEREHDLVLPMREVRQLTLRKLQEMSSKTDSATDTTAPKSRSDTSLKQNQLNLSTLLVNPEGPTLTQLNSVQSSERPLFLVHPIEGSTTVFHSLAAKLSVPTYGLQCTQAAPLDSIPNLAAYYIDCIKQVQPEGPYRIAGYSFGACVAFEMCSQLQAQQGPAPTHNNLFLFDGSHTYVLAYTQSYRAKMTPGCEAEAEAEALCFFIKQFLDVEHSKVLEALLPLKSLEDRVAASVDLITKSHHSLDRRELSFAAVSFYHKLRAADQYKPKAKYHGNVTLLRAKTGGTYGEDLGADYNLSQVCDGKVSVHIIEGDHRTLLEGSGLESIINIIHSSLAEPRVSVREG

Substance: {Cu[(CH3)3 N.BH2 CO2 ]2.(CH3)3 N.BH2 COOH} [Compound I]
- Fatty Acid Synthetase (Fatty Acid Synthetase [1]; 2.5 mg/kg): 102 ± 7% of control
- Fatty Acid Synthetase (Fatty Acid Synthetase [1]; 5.0 mg/kg): 90 ± 6% of control
- Fatty Acid Synthetase (Fatty Acid Synthetase [1]; 10 mg/kg): 94 ± 5% of control
- thymidylate synthetase inhibition (thymidylate synthetase): not inhibited
- Fatty Acid Synthetase (Fatty Acid Synthetase [2]; 50 μM): 86 ± 7 Percent Control
- Fatty Acid Synthetase (Fatty Acid Synthetase [2]; 100 μM): 96 ± 8 Percent Control
- Fatty Acid Synthetase (Fatty Acid Synthetase [2]; 200 μM): 87 ± 7 Percent Control
